Source: ChEMBL document CHEMBL4842376, “Design, synthesis and biological evaluation of novel hybrids targeting mTOR and HDACs for potential treatment of hepatocellular carcinoma” (Eur J Med Chem, 2021)
Activity calls are given as the source filed them. No cut-off for these calls is given here.

Tests used:
SNU-423 = experiment: Antiproliferative activity against human SNU-423 cells assessed as inhibition of cell growth measured after 72 hrs by MTT assay; assay type: functional, cell-based; conditions: SNU-423, 72 h
HeLa = experiment: cells; assay type: functional, cell-based; conditions: Homo sapiens, 72 h
Description: Antiproliferative activity against human HeLa cells assessed as inhibition of cell growth measured after 72 hrs by MTT assay

Hep 3B2 = experiment: cells; assay type: functional, cell-based; conditions: Homo sapiens, Hep3B, 72 h
Description: Antiproliferative activity against human Hep3B cells assessed as inhibition of cell growth measured after 72 hrs by MTT assay

L02 = experiment: cells; assay type: ADME, cell-based; conditions: Homo sapiens, L02, 72 h
Description: Cytotoxicity against human L02 cells assessed as reduction in cell viability measured after 72 hrs by MTT assay

in vitro = conditions: human, L02 cells versus HepG2 cells
Description: Selectivity index, ratio of IC50 for cytotoxicity against human L02 cells to IC50 for antiproliferative activity against human HepG2 cells

HepG2 = experiment: Antiproliferative activity against human HepG2 cells assessed as inhibition of cell growth measured after 72 hrs by MTT assay; assay type: functional, cell-based; conditions: HepG2, 72 h
A549 = experiment: cells; assay type: functional, cell-based; conditions: Homo sapiens, A549, 72 h
Description: Antiproliferative activity against human A549 cells assessed as inhibition of cell growth measured after 72 hrs by MTT assay

Bel-7402 = experiment: Antiproliferative activity against human Bel-7402 cells assessed as inhibition of cell growth measured after 72 hrs by MTT assay; assay type: functional, cell-based; conditions: Bel-7402, 72 h
[1] = Metabolic stability in rat liver microsomes assessed as parent compound remaining at 10 ug/ml measured after 1 hr in the presence of NADPH by HPLC analysis; assay type: ADME, Microsome; conditions: liver microsomes, at 10 µg/mL, read-out: Stabilty
MDA-MB-231 = experiment: cells; assay type: functional, cell-based; conditions: Homo sapiens, MDA-MB-231, 72 h
Description: Antiproliferative activity against human MDA-MB-231 cells assessed as inhibition of cell growth measured after 72 hrs by MTT assay

CNE-2 = experiment: cells; assay type: functional, cell-based; conditions: Homo sapiens, CNE-2, 72 h
Description: Antiproliferative activity against human CNE-2 cells assessed as inhibition of cell growth measured after 72 hrs by MTT assay

[2] = biological target: Serine/threonine-protein kinase mTOR (Homo sapiens, UniProt P42345); experiment: Inhibition of mTOR (unknown origin) at 1 uM using U-Light-4E-BP1 peptide as a substrate in the presence of ATP incubated for 30 mins by Lance ultra assay relative to control
PLC-PRF-5 = experiment: Antiproliferative activity against human PLC-PRF-5 cells assessed as inhibition of cell growth measured after 72 hrs by MTT assay; assay type: functional, cell-based; conditions: PLC-PRF-5, 72 h
Histone deacetylase 3 = Histone deacetylase 3 (Homo sapiens, UniProt O15379); experiment: Inhibition of HDAC3 (unknown origin) using Ac-peptide as a substrate pretreated for 15 mins followed by substrate addition
HCT-116 = experiment: cells; assay type: functional, cell-based; conditions: Homo sapiens, HCT-116, 72 h
Description: Antiproliferative activity against human HCT-116 cells assessed as inhibition of cell growth measured after 72 hrs by MTT assay

[3] = biological target: T1, Histone deacetylase (Homo sapiens) (UniProt Q13547+O15379+Q9UBN7+Q92769+Q9UQL6+Q8WUI4+Q9BY41+Q96DB2+P56524+Q9UKV0+Q969S8); experiment: Inhibition of HDAC in human HepG2 cells assessed as upregulation of histone H3 acetylation at 6 uM measured after 24 hrs by western blot analysis; assay type: cell-based
SK-HEP1 = experiment: cells; assay type: functional, cell-based; conditions: Homo sapiens, SK-HEP1, 72 h
Description: Antiproliferative activity against human SK-HEP1 cells assessed as inhibition of cell growth measured after 72 hrs by MTT assay

MCF7 = experiment: cells; assay type: functional, cell-based; conditions: Homo sapiens, MCF7, 72 h
Description: Antiproliferative activity against human MCF7 cells assessed as inhibition of cell growth measured after 72 hrs by MTT assay

[4] = biological target: T2, Protein deacetylase HDAC6 (Homo sapiens, UniProt Q9UBN7); experiment: Inhibition of HDAC6 (unknown origin) using Ac-peptide as a substrate pretreated for 15 mins followed by substrate addition
T2 sequence (Q9UBN7 whole entry): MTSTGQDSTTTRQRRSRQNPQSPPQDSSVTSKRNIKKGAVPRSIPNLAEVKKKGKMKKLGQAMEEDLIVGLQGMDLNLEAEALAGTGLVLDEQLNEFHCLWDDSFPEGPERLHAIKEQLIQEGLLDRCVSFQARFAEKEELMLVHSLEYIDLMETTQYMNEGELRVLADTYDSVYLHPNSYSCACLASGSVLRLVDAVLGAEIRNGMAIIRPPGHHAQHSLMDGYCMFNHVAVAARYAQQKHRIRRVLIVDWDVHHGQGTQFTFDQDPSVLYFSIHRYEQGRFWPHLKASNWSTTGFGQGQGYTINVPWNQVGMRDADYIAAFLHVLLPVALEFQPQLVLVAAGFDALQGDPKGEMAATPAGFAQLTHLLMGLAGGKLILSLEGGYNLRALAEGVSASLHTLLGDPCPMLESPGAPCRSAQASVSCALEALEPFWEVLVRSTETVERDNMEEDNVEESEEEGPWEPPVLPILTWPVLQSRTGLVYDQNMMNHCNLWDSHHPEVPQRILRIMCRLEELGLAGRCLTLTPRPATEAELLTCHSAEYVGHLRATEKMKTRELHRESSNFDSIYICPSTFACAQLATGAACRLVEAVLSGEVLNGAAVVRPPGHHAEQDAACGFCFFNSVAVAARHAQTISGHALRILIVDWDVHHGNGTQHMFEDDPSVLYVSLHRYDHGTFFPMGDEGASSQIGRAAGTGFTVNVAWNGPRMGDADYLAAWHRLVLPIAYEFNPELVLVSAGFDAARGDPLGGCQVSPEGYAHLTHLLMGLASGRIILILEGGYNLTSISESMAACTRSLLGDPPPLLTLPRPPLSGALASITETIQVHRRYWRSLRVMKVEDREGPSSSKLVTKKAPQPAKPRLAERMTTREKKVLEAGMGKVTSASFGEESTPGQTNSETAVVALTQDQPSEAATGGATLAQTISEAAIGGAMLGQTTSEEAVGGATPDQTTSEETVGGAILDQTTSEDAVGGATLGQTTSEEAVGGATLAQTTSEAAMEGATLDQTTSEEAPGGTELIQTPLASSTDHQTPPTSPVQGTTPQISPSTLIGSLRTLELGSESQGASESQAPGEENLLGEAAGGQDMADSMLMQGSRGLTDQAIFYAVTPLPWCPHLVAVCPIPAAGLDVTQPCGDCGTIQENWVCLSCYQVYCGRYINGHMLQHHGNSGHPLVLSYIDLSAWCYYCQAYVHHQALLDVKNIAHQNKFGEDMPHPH

Huh-7 = experiment: cells; assay type: functional, cell-based; conditions: Homo sapiens, Huh-7, 72 h
Description: Antiproliferative activity against human Huh-7 cells assessed as inhibition of cell growth measured after 72 hrs by MTT assay

[5] = biological target: T3, Protein deacetylase HDAC6 (Homo sapiens) (UniProt Q9UBN7); experiment: Inhibition of HDAC6 (unknown origin) at 1 uM using Ac-peptide as a substrate pretreated for 15 mins followed by substrate addition relative to control
T3 sequence (whole entry): T2 sequence (Q9UBN7 whole entry)

[6] = biological target: T1, Histone deacetylase (Homo sapiens); experiment: Inhibition of HDAC in human HepG2 cells assessed as upregulation of alpha-tubulin acetylation at 6 uM measured after 24 hrs by western blot analysis; assay type: cell-based
Histone deacetylase 2 = Histone deacetylase 2 (Homo sapiens, UniProt Q92769)
Histone deacetylase 1 = Histone deacetylase 1 (Homo sapiens, UniProt Q13547); experiment: Inhibition of HDAC1 (unknown origin) using Ac-peptide as a substrate pretreated for 15 mins followed by substrate addition
Histone deacetylase 8 = biological target: T4, Histone deacetylase 8 (Homo sapiens, UniProt Q9BY41); experiment: Inhibition of HDAC8 (unknown origin) using Ac-peptide as a substrate pretreated for 15 mins followed by substrate addition
T4 sequence (Q9BY41 whole entry): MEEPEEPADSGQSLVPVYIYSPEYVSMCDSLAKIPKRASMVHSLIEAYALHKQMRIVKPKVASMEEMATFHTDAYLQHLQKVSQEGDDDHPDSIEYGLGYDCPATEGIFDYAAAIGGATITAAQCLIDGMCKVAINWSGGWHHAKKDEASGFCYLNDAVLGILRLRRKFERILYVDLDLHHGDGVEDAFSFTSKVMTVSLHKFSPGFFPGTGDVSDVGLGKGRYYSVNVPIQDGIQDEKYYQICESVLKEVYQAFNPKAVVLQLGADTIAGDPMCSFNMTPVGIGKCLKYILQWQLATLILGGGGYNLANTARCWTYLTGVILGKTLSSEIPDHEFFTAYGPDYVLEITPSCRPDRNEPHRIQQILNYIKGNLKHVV

Chain of Histone deacetylase 3 (O15379 whole entry): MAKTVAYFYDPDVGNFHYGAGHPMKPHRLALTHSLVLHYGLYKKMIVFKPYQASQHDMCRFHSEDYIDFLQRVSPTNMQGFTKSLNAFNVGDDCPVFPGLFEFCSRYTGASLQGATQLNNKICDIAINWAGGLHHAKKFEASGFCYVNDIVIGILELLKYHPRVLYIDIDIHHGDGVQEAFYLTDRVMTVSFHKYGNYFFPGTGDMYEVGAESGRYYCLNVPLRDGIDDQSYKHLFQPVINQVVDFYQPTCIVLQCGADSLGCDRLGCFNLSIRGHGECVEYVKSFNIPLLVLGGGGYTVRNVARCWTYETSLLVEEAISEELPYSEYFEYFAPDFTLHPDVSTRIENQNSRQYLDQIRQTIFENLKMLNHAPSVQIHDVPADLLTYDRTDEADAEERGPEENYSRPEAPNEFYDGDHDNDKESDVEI
Chain of Histone deacetylase 2 (Q92769 whole entry): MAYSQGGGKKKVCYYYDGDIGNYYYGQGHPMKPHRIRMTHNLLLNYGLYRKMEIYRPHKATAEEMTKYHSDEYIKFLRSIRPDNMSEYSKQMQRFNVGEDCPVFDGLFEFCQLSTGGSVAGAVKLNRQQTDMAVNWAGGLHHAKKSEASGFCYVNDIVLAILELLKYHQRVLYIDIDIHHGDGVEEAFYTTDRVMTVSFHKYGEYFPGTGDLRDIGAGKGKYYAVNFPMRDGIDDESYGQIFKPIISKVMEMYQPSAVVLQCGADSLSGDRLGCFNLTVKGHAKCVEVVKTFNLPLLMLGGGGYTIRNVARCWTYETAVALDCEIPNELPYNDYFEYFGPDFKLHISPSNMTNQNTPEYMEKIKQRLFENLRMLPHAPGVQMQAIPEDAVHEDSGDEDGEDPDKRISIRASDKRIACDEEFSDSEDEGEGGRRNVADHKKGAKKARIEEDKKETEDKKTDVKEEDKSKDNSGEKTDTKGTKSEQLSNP
Chain of Histone deacetylase 1 (Q13547 whole entry): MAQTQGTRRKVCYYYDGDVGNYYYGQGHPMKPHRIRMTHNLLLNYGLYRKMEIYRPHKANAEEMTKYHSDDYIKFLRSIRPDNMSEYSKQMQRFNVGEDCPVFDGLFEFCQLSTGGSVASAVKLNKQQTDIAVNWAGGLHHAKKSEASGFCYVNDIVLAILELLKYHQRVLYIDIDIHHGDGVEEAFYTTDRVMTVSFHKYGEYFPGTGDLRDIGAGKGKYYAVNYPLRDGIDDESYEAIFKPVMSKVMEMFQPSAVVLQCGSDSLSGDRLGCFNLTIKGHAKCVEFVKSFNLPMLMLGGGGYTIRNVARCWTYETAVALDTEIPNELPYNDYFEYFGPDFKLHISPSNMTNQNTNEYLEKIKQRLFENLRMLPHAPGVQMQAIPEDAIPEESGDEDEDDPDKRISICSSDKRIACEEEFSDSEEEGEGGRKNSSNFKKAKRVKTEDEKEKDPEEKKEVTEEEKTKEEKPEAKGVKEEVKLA

IC50 (SNU-423): 280 nM
IC50 (HeLa): 12.9 µM
IC50 (Hep 3B2): 10.3 µM
IC50 (HepG2): 3.64 µM
IC50 (A549): 8.36 µM
IC50 (Bel-7402): 13.2 µM
remaining at 1 h, 10 ug/ml [1]: 63.9%
IC50 (MDA-MB-231): 2900 nM
IC50 (CNE-2): 2250 nM
inhibition [2]: 99.6%
IC50 (Histone deacetylase 3): 7.1 nM
IC50 (HCT-116): 3.15 µM
inhibition [3]: Active
IC50 (SK-HEP1): 10.7 µM
IC50 (MCF7): 7.22 µM
IC50 [4]: 6.73 nM
IC50 (Huh-7): 2770 nM
inhibition [5]: 99.1%
inhibition [6]: Active
IC50 (Histone deacetylase 2): 3.4 nM
IC50 (Histone deacetylase 1): 2.5 nM
IC50 (Histone deacetylase 8): 334 nM
SMILES: Nc1nc2cc(-c3nn(CCCCCCCC(=O)NO)c4ncnc(N)c34)ccc2o1
IC50 (L02): 8.04 µM
selectivity ratio (in vitro): 2.21
IC50 (PLC-PRF-5): 30.5 µM
